Several values for one entry are separate records, joined by “and”; a condition that tells them apart may be missing. Equal entries are not always repeated. Inconclusive results and toxic doses are left out. The calls were made as follows: active = survival T/C of 150% or more; inactive = T/C below 125% in these data.
Test system: BDF1 mice, P388 leukemia ip, median survival T/C
Assay: NCI In Vivo Anticancer Drug Screen. Data for tumor model P388 Leukemia (intraperitoneal) in B6D2F1 (BDF1) mice
Details: endpoint: median survival time, higher = longer survival
How it was run: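 Transplantable tumour in mice; compound vs vehicle dosing; survival scored; ratio of treated to control reported.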

[1] = dose: 100.0 mg/kg/injection, schedule: Q04DX003 (ip), vehicle: saline sonified
[2] = dose: 200.0 mg/kg/injection, schedule: Q04DX003 (ip), vehicle: saline sonified
[3] = dose: 50.0 mg/kg/injection, schedule: Q01DX009 (ip), vehicle: saline with Tween-80
[4] = dose: 100.0 mg/kg/injection, schedule: Q01DX009 (ip), vehicle: saline with Tween-80
[5] = dose: 200.0 mg/kg/injection, schedule: Q01DX009 (ip), vehicle: saline with Tween-80
[6] = dose: 100.0 mg/kg/injection, schedule: Q01DX009 (ip), vehicle: Klucel (hydroxypropylcellulose) (HPC)
[7] = dose: 100.0 mg/kg/injection, schedule: Q01DX009 (ip), vehicle: other
[8] = dose: 100.0 mg/kg/injection, schedule: Q04DX003 (ip), vehicle: Klucel (hydroxypropylcellulose) (HPC)
[9] = dose: 200.0 mg/kg/injection, schedule: Q01DX009 (ip), vehicle: other
[10] = dose: 200.0 mg/kg/injection, schedule: Q04DX003 (ip), vehicle: Klucel (hydroxypropylcellulose) (HPC)
[11] = dose: 400.0 mg/kg/injection, schedule: Q04DX003 (ip), vehicle: Klucel (hydroxypropylcellulose) (HPC)
[12] = dose: 100.0 mg/kg/injection, schedule: Q04DX003 (ip), vehicle: saline with Tween-80
[13] = dose: 200.0 mg/kg/injection, schedule: Q04DX003 (ip), vehicle: saline with Tween-80
[14] = dose: 400.0 mg/kg/injection, schedule: Q04DX003 (ip), vehicle: saline with Tween-80

Measured: T/C

CC1(C)N=C(N)N=C(N)N1c1cccc(OCCOc2ccc([N+](=O)[O-])cc2)c1
inactive: dose: 50.0 mg/kg/injection, schedule: Q01DX009 (ip), vehicle: saline sonified 110 % of control | dose: 50.0 mg/kg/injection, schedule: Q04DX003 (ip), vehicle: saline sonified 100 % of control | [1] 107 % of control | [2] 107 % of control
active: dose: 100.0 mg/kg/injection, schedule: Q01DX009 (ip), vehicle: saline sonified 160 % of control

O=C1C(N2CCCC2)=C(N2CC2)C(=O)C(N2CCCC2)=C1N1CC1
active: dose: 0.25 mg/kg/injection, schedule: Q01DX009 (ip), vehicle: saline 172 % of control

CC1CC2OC(=O)C3=C2C(CCC3)C12CC(c1ccoc1)OC2=O (stereo not given)
inactive: dose: 25.0 mg/kg/injection, schedule: Q01DX001 (ip), vehicle: saline with Tween-80 111 % of control | dose: 50.0 mg/kg/injection, schedule: Q01DX001 (ip), vehicle: saline with Tween-80 106 % of control | dose: 100.0 mg/kg/injection, schedule: Q01DX001 (ip), vehicle: saline with Tween-80 106 % of control | dose: 200.0 mg/kg/injection, schedule: Q01DX001 (ip), vehicle: saline with Tween-80 116 % of control

CCN1/C(=C/C=C/C=C\C=C\c2sc3ccc4ccccc4c3[n+]2CC)Sc2ccc3ccccc3c21
active: dose: 1.56 mg/kg/injection, schedule: Q04DX002 (ip), vehicle: saline with Tween-80 173 % of control | dose: 3.12 mg/kg/injection, schedule: Q04DX002 (ip), vehicle: saline with Tween-80 162 % of control

CCN(CC)Cc1nc2nc(Cl)c(Cl)nc2[nH]1
inactive: dose: 5.0 mg/kg/injection, schedule: Q01DX009 (ip), vehicle: saline with Tween-80 112 % of control | dose: 10.0 mg/kg/injection, schedule: Q01DX009 (ip), vehicle: saline with Tween-80 114 % of control | dose: 12.5 mg/kg/injection, schedule: Q04DX003 (ip), vehicle: saline with Tween-80 114 % of control | dose: 20.0 mg/kg/injection, schedule: Q01DX009 (ip), vehicle: saline with Tween-80 98 % of control | dose: 25.0 mg/kg/injection, schedule: Q04DX003 (ip), vehicle: saline with Tween-80 100 % of control and 114 % of control | dose: 50.0 mg/kg/injection, schedule: Q04DX003 (ip), vehicle: saline with Tween-80 88 % of control and 100 % of control and 104 % of control

CCOC(=O)Cn1nc(-c2ccc([N+](=O)[O-])o2)oc1=O
inactive: [3] 97 % of control | [4] 95 % of control | [5] 103 % of control

CC1CN1c1nc(N2CC2C)nc(N2CC2C)n1 (stereo not given)
inactive: dose: 3.0 mg/kg/injection, schedule: Q01DX009 (ip), vehicle: saline 104 % of control | dose: 3.0 mg/kg/injection, schedule: Q04DX003 (ip), vehicle: saline 109 % of control | dose: 6.0 mg/kg/injection, schedule: Q01DX009 (ip), vehicle: saline 112 % of control | dose: 6.0 mg/kg/injection, schedule: Q04DX003 (ip), vehicle: saline 109 % of control | dose: 12.0 mg/kg/injection, schedule: Q04DX003 (ip), vehicle: saline 114 % of control | dose: 12.5 mg/kg/injection, schedule: Q04DX003 (ip), vehicle: saline 120 % of control

CN=C1N[N+]2=C(C)CCCC2S1 (stereo not given)
inactive: dose: 25.0 mg/kg/injection, schedule: Q01DX009 (ip), vehicle: saline 97 % of control | dose: 50.0 mg/kg/injection, schedule: Q01DX009 (ip), vehicle: saline 91 % of control | dose: 100.0 mg/kg/injection, schedule: Q01DX009 (ip), vehicle: saline 99 % of control

N#Cc1nc(C#N)c(Sc2ccccc2)c(Sc2ccccc2)c1Sc1ccccc1
inactive: dose: 12.5 mg/kg/injection, schedule: Q01DX009 (ip), vehicle: saline with Tween-80 101 % of control and 110 % of control | dose: 25.0 mg/kg/injection, schedule: Q01DX009 (ip), vehicle: saline with Tween-80 100 % of control and 103 % of control | [3] 121 % of control and 122 % of control

CN(C)N=Nc1ccccc1[N+](=O)[O-]
inactive: dose: 25.0 mg/kg/injection, schedule: Q01DX009 (ip), vehicle: Klucel (hydroxypropylcellulose) (HPC) 107 % of control | [6] 92 % of control

CC(=O)c1cnn(-c2ccccc2)c1C
inactive: dose: 100.0 mg/kg/injection, schedule: Q01DX001 (ip), vehicle: Klucel (hydroxypropylcellulose) (HPC) 104 % of control | [7] 105 % of control | [8] 104 % of control | dose: 200.0 mg/kg/injection, schedule: Q01DX001 (ip), vehicle: Klucel (hydroxypropylcellulose) (HPC) 109 % of control | [9] 100 % of control | [10] 86 % of control | dose: 400.0 mg/kg/injection, schedule: Q01DX001 (ip), vehicle: Klucel (hydroxypropylcellulose) (HPC) 109 % of control | dose: 400.0 mg/kg/injection, schedule: Q01DX009 (ip), vehicle: other 100 % of control | [11] 90 % of control

COc1cc2c(cc1OC)-c1cc3cc(OC)c(OC)cc3c(CCC(=O)O)[n+]1CC2
inactive: dose: 75.0 mg/kg/injection, schedule: Q01DX009 (ip), vehicle: Klucel (hydroxypropylcellulose) (HPC) 101 % of control | dose: 150.0 mg/kg/injection, schedule: Q01DX009 (ip), vehicle: Klucel (hydroxypropylcellulose) (HPC) 101 % of control

ON=C(Cc1ccccc1)Cc1ccccc1
inactive: [12] 100 % of control | [13] 109 % of control | [14] 109 % of control

COC(=O)c1ccc(OCCOc2ccc(C(C)(C)CC(C)(C)C)cc2)c([N+](=O)[O-])c1
inactive: [1] 100 % of control | [2] 86 % of control | dose: 400.0 mg/kg/injection, schedule: Q04DX003 (ip), vehicle: saline sonified 86 % of control

CC(O)C(NCNC(=O)C1=C(O)C2(O)C(=O)C3=C(O)c4c(O)cccc4C(C)(O)C3CC2C(N(C)C)C1=O)C(=O)O (stereo not given)
inactive: [4] 91 % of control | [5] 100 % of control | dose: 400.0 mg/kg/injection, schedule: Q01DX009 (ip), vehicle: saline with Tween-80 87 % of control

C/C=C1\C[N+]2(C)CCC34c5ccccc5NC32C(O)CC1C4(CO)C(=O)OC (stereo not given)
inactive: dose: 2.0 mg/kg/injection, schedule: Q01DX009 (ip), vehicle: saline with Tween-80 98 % of control | dose: 4.0 mg/kg/injection, schedule: Q01DX009 (ip), vehicle: saline with Tween-80 93 % of control | dose: 8.0 mg/kg/injection, schedule: Q01DX009 (ip), vehicle: saline with Tween-80 94 % of control

CCCCOC(=O)c1cccc(C(=O)OCCCC)c1Sc1ccccc1
inactive: dose: 50.0 mg/kg/injection, schedule: Q01DX009 (ip), vehicle: other 105 % of control | [7] 100 % of control | [9] 107 % of control

CC/C(=C(\CC)c1ccc(OC)cc1)c1ccc(OC)cc1
inactive: [3] 90 % of control | [4] 90 % of control | [12] 86 % of control | [5] 90 % of control | [13] 90 % of control | [14] 95 % of control

CCOC(=O)C(C(=O)OCC)C1C=CCC1 (stereo not given)
inactive: [6] 100 % of control | [8] 95 % of control | dose: 200.0 mg/kg/injection, schedule: Q01DX009 (ip), vehicle: Klucel (hydroxypropylcellulose) (HPC) 104 % of control | [10] 116 % of control | dose: 400.0 mg/kg/injection, schedule: Q01DX009 (ip), vehicle: Klucel (hydroxypropylcellulose) (HPC) 109 % of control | [11] 100 % of control

CCOC(=O)NP(=O)(N1CC1)N1CC1
active: dose: 11.0 mg/kg/injection, schedule: Q04DX003 (ip), vehicle: saline 272 % of control | dose: 25.0 mg/kg/injection, schedule: Q04DX003 (ip), vehicle: saline 225 % of control | dose: 33.0 mg/kg/injection, schedule: Q04DX003 (ip), vehicle: saline 333 % of control and 220 % of control | dose: 50.0 mg/kg/injection, schedule: Q04DX003 (ip), vehicle: saline 300 % of control and 172 % of control and 195 % of control
inactive: dose: 2.1 mg/kg/injection, schedule: Q04DX003 (ip), vehicle: saline 105 % of control | dose: 3.1 mg/kg/injection, schedule: Q04DX003 (ip), vehicle: saline 110 % of control | dose: 75.0 mg/kg/injection, schedule: Q04DX003 (ip), vehicle: saline 88 % of control and 95 % of control

— PubChem BioAssay AID328 (DTP/NCI, 2004)
